The nature of data set [1]: Chronic oral tolerability: metabolic cages and post-mortem H&E histology. The data set is classed as in vivo, mice. The note with it: for pathological damage to the gastrointestinal tract: H&E stained tissues. The protocol:
The mice described in FIGS. 17-19 were studied in metabolic cages. Six days after they adjusted to the caged condition on regular diet and water, regular drinking water, or vehicle (2% DMSO and 2% cremophor) in drinking water, or 2 mM T26A in drinking water was administered for 16 days. Their water and food intake, weight body and urine volume were recorded daily. Results are shown graphically in FIG. 20.
FIG. 21 provides results of post-mortem studies on the mice of FIGS. 17-19 administered either regular drinking water, or vehicle (2% DMSO and 2% cremophor) in drinking water, or 2 mM T26A in drinking water for 16 days. At the end of experiments, we isolated tissues from the mice and made H&E stained slides of tissues and examined the tissues microscopically.

Data set [2] addresses T1, prostaglandin transporter (PGT) (Rattus norvegicus, UniProt Q00910).
T1 construct: GFP; expressed in transfected cells
Briefly: PGE2 uptake by MDCK cells stably expressing PGT. The format is cell-based. On the procedure: MDCK or 3T3 cells were seeded at 15-20% confluence on 24-well plates. The day on which the cells were seeded was considered day 1. PGE2 uptake experiments were conducted on day 4. All of the PGE2 uptake experiments were conducted at room temperature. On day 4, cells were washed twice with Waymouth buffer (135 mM NaCl, 13 mM H-Hepes, 13 mM Na-Hepes, 2.5 mM CaCl2, 1.2 mM MgCl2, 0.8 mM MgSO4, 5 mM KCl, and 28 mM D-glucose). Then 200 μL of Waymouth buffer containing [^3H]PGE2 was added to each well. At the designated time, the uptake of [^3H]PGE2 was stopped by aspiration of uptake buffer; this was followed by immediate washing twice with 500 μL of chilled Waymouth buffer. Cells were then lysed with 100 μL lysis buffer containing 0.25% SDS and 0.05 N NaOH. 1.5 mL of scintillation solution was added to each well, and intracellular [^3H]PGE2 was counted by MicroBeta Counter.
For preliminary screening of the compounds, 25 μL of Waymouth buffer containing small organic compounds were added to each well; this was immediately followed by the addition of 175 μL of Waymouth buffer containing [^3H]PGE2. In each well, the total volume of uptake medium was 200 μL. Organic compounds were first dissolved in DMSO and then diluted in Waymouth buffer. The percent inhibition of [^3H]PGE2 uptake by compounds was calculated as [(uptakevehicle−uptakeinhibitor)÷(uptakevehicle)]×100.
The initial velocities at various initial extracellular concentrations of PGE2 were determined from the PGE2 uptake in the first 2 minutes; these were linear over the time course of PGE2 uptake. Ki values were obtained by curve fitting the reciprocal of initial velocities of PGE2 uptake versus the reciprocal of extracellular PGE2 concentrations at various concentrations of the inhibitors. At low PGE2 concentrations, the extracellular concentrations were taken as ^3H labeled PGE2, which has a specific activity of 500 μCi/mol. At high concentrations of PGE2, a mixture of ^3H labeled and unlabeled PGE2 was made to a final specific activity of 25 μCi/mol.

Setting [3] is: 2 mM in drinking water, 16 days.

Entries after “also recorded” stand apart in the source; their conditions may differ.

Here are results for one compound from patent US9144573B2, “Prostaglandin transporter inhibitors” (Albert Einstein College of Medicine of Yeshiva University, priority 2006, dated 2015).

Regarding `[N-]=[N+]=NCCOCCOCCNC(=O)c1ccc(Nc2nc(NCCOCCOCCNC(=O)c3ccccc3)nc(Nc3ccc(O)cc3)n2)cc1` [T26A], in data set [1] (setting [3]), the “effects on water and food intake, body weight, daily urine volume” value is given as “did not have any observable effects; also recorded: does not have any apparent effects”. Also, the “pathological damage to the gastrointestinal tract” value is “did not cause any pathological damage” in data set [1] (setting [3]) and “does not cause any pathological damage” in data set [1] (2 mM in drinking water, 16 days, listed as T26). Further, the “toxicity on chronic oral basis” value in data set [1] (doses sufficient to raise plasma and urinary PGE2) is recorded as “non-toxic”. The Ki in data set [2] (Example 2) worked out at 300 nM; in data set [2] (Table 2), 380 nM. Further, the inhibition at 5 µM in data set [2] (MDCK, read-out: % Inhib. at 5 μM) was determined as 92%. In addition, in data set [2] (double reciprocal analysis), the mode of inhibition entry is reported as “competitively inhibits”.

By Ki is commonly meant the equilibrium dissociation constant of an inhibitor or competing ligand from its target. Read a low Ki as tighter binding.
